{"source": "patent US20090186111A1", "about": "“Novel Bacteria and Pharmaceutically Active Products Obtained Therefrom” (priority 2004, published 2009)", "test_system": "S. aureus LSLT1111", "assay": "Antibiogram of S. aureus LSLT1111"}
{"compound": "CC1(C)S[C@@H]2[C@H](NC(=O)[C@H](N)c3ccccc3)C(=O)N2[C@H]1C(=O)O", "note": "[Ampicillin]", "values": [{"measurement": "Diameter of clear area", "result": 12.6, "unit": "mm"}, {"measurement": "Sensitivity to antibiotic", "result": "Resistant"}]}
{"compound": "CC(=O)OCC1=C(C(=O)O)N2C(=O)[C@@H](NC(=O)Cc3cccs3)[C@H]2SC1", "note": "[Cephalothin]", "values": [{"measurement": "Diameter of clear area", "result": 28.8, "unit": "mm"}, {"measurement": "Sensitivity to antibiotic", "result": "Sensitive"}]}
{"compound": "O=C(N[C@H](CO)[C@H](O)c1ccc([N+](=O)[O-])cc1)C(Cl)Cl", "note": "[Chloramphenicol]", "values": [{"measurement": "Diameter of clear area", "result": 18.6, "unit": "mm"}, {"measurement": "Sensitivity to antibiotic", "result": "Sensitive"}]}
{"compound": "CC[C@H]1OC(=O)[C@H](C)[C@@H](O[C@H]2C[C@@](C)(OC)[C@@H](O)[C@H](C)O2)[C@H](C)[C@@H](O[C@@H]2O[C@H](C)C[C@H](N(C)C)[C@H]2O)[C@](C)(O)C[C@@H](C)C(=O)[C@H](C)[C@@H](O)[C@]1(C)O", "note": "[Erythromycin]", "values": [{"measurement": "Diameter of clear area", "result": 17.3, "unit": "mm"}, {"measurement": "Sensitivity to antibiotic", "result": "Resistant/Sensitive"}]}
{"compound": "CCC[C@@H]1C[C@@H](C(=O)N[C@@H]([C@H]2O[C@H](SC)[C@H](O)[C@@H](O)[C@H]2O)[C@@H](C)O)N(C)C1", "note": "[Lincomycin]", "values": [{"measurement": "Diameter of clear area", "result": 16.7, "unit": "mm"}, {"measurement": "Sensitivity to antibiotic", "result": "Resistant/Sensitive"}]}
{"compound": "COc1cccc(OC)c1C(=O)N[C@@H]1C(=O)N2[C@@H]1SC(C)(C)[C@@H]2C(=O)O", "note": "[Meticillin]", "values": [{"measurement": "Diameter of clear area", "result": 23.3, "unit": "mm"}, {"measurement": "Sensitivity to antibiotic", "result": "Sensitive"}]}
{"compound": "CN(C)[C@@H]1C(=O)C(C(N)=O)=C(O)[C@@]2(O)C(=O)C3=C(O)c4c(O)cccc4[C@@](C)(O)[C@H]3C[C@@H]12", "note": "[Tetracyclin]", "values": [{"measurement": "Diameter of clear area", "result": 19.8, "unit": "mm"}, {"measurement": "Sensitivity to antibiotic", "result": "Sensitive"}]}
{"compound": "CN[C@H](CC(C)C)C(=O)N[C@H]1C(=O)N[C@@H](CC(N)=O)C(=O)N[C@H]2C(=O)N[C@H]3C(=O)N[C@H](C(=O)N[C@H](C(=O)O)c4cc(O)cc(O)c4-c4cc3ccc4O)[C@H](O)c3ccc(c(Cl)c3)Oc3cc2cc(c3O[C@@H]2O[C@H](CO)[C@@H](O)[C@H](O)[C@H]2O[C@H]2C[C@](C)(N)[C@H](O)[C@H](C)O2)Oc2ccc(cc2Cl)[C@H]1O", "note": "[Vancomycin]", "values": [{"measurement": "Diameter of clear area", "result": 11.9, "unit": "mm"}, {"measurement": "Sensitivity to antibiotic", "result": "Sensitive"}]}
{"compound": "Amox. Clav. ac", "values": [{"measurement": "Diameter of clear area", "result": 28.0, "unit": "mm"}, {"measurement": "Sensitivity to antibiotic", "result": "Sensitive"}]}
{"compound": "Gentamicin", "values": [{"measurement": "Diameter of clear area", "result": 16.6, "unit": "mm"}, {"measurement": "Sensitivity to antibiotic", "result": "Sensitive"}]}
{"compound": "Neomycin", "values": [{"measurement": "Diameter of clear area", "result": 14.7, "unit": "mm"}, {"measurement": "Sensitivity to antibiotic", "result": "Resistant/Sensitive"}]}
{"compound": "Penicillin", "values": [{"measurement": "Diameter of clear area", "result": 9.0, "unit": "mm"}, {"measurement": "Sensitivity to antibiotic", "result": "Resistant"}]}
{"compound": "Sulpha/trimethoprim", "values": [{"measurement": "Diameter of clear area", "result": 18.8, "unit": "mm"}, {"measurement": "Sensitivity to antibiotic", "result": "Sensitive"}]}
